Patent US5159085A, “2-anilino phenylacetic acid derivatives as inhibitors of PLA2 and lipoxygenase” (American Home Products Corporation, priority 1991, dated 1992)
Read-outs that look alike come from different tables or passages of the source.

What was measured:
[1] = test system: TxB2 synthesis (cyclooxygenase) by rat glycogen-elicited polymorphonuclear leukocytes; test: Inhibition of TxB2 synthesis by rat glycogen-elicited PMN (cyclooxygenase); type: cell-based, rat (female Wistar); conditions: read-out: IC50 (TxB2 synthesis)
Experimental: Rat polymorphonuclear leukocytes (PMNs) are obtained from female Wistar rats (150-200 g) which receive an injection of 6% glycogen (10 ml i.p.). Rats are sacrificed 18-24 hours post injection by CO2 asphyxiation and the elicited cells are harvested by peritoneal lavage using physiological saline (0.9% NaCl). The exudate is centrifuged at 400×g for 10 minutes. The supernatant fluid is discarded and the cell pellet is resuspended to a concentration of 2.0×10^7 cells/ml in HBSS containing Ca^++ and Mg^++ and 10 μM L-cysteine.
To 1 ml aliquots of cell suspension, test drugs or vehicle are added, then preincubated at 37° C. for 10 minutes. A 23187 (1 μM), [^3 H]-AA (3.0 μCi/ml) and unlabeled AA (1 μM) are then added and the samples are further incubated for 10 minutes. The reaction is terminated by centrifugation and pelleting cells. Supernatants are then analyzed by HPLC analysis on a 15 cm×4.6 mm ID supelcosil LC-18 (Supelco)(3M) column, using a two solvent system at a flow rate of 1.4 ml total flow as follows:
Percent solvent changes are accomplished in a linear fashion.
Injections: 150 μl of each supernatant is injected directly onto column and ^3 H arachidonic acid metabolites are monitored using an on-line radioactivity detector (Ramona, IN/US, Fairfield, NJ).
Standards: 10^4 -2.0×10^4 dpm of eicosanoids of interest are injected in 90 μl EtOH cocktail.
Co-chromatography with standard [^3 H] leukotriene B4 (LTB4) in medium of stimulated PMN exposed to drug is compared to that found in medium of stimulated cells exposed to no drug, generating percent inhibition.
Results are expressed as percent inhibition at a given compound dose or as an IC50 value.
In this assay, the procedure of Example 19 is carried out as described. However, in order to determine cyclooxygenase activity, the samples are co-chromatographed with authentic reference [^3 H]-TxB2.
The results are calculated as in Example 19 and presented below: […]

[2] = biological target: T1, human platelet PLA2 (Homo sapiens, UniProt P14555); test: In vitro isolated phospholipase A2 assay, human platelet PLA2 (arachidonic acid release from 3H-AA E. coli substrate); type: biochemical
T1 construct: Semipurified human platelet acid extract PLA2; from tissue; host or cells: human platelets (semipurified acid extract)
T1 sequence (P14555 21-144): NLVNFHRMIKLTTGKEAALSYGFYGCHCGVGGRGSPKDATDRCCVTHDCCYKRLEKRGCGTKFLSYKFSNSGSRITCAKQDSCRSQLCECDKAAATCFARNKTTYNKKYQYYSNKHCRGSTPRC

[3] = biological target: T2, human synovial fluid PLA2 (Homo sapiens, UniProt P14555); test: In vitro isolated phospholipase A2 assay, human synovial fluid PLA2; type: biochemical
T2 construct: Purified human synovial fluid; from tissue; host or cells: human synovial fluid
T2 sequence (P14555 21-144): T1 sequence (P14555 21-144)
Experimental: The compounds of the invention are tested in an in vitro isolated phospholipase A2 assay to determine the ability of the test compounds to inhibit the release of arachidonic acid from an arachidonic acid-containing substrate by the action of phospholipase A2 enzyme from human and non-human sources.
(§1) This assay is carried out as follows:
Into a 15 mL polypropylene tube are added the following:
*pre-incubate at room temperature 30 min prior to substrate addition.
^5 Stock 10 mM prepared in dimethyl sulfoxide. Make 1:2 dilution with
dimethyl sulfoxide and add 1 μ L to 100 μL assay tube.
^6 Two human PLA2 enzymes are used:
b) Purified human synovial fluid.
Incubate the 100 μL reaction mixture for 10 minutes at 37° C. in a shaking water bath. The reaction is terminated by the addition of 2 mL tetrahydrofuran, followed by vortexing. NH2 columns (100 μg/mL--Analytichem International) are conditioned with 0.5 mL tetrahydrofuran followed by 0.5 mL tetrahydrofuran/water (2 mL:0.1 mL, v/v).
The sample is loaded onto the columns and slowly drawn through them. The hydrolyzed arachidonic acid retained in the columns is eluted therefrom with 1 mL tetrahydrofuran/glacial acetic acid (2%). The arachidonic acid is transferred to scintillation vials and quantitated by β-counting analysis. A "total counts" sample is prepared by pipetting 25 μL ^3 H-arachidonate E. coli directly into a scintillation vial to which is added 1 mL tetrahydrofuran. 10 mL aquasol (scintillation cocktail) is added to all samples. [formula]

[4] = test system: paw edema induced by exogenous PLA2 (snake, A. piscivorus piscivorus); test: In vivo PLA2 murine paw edema assay; parameters: species or system mouse (male CD-1)
Experimental: The ability of the compounds of the invention to inhibit paw edema induced by the exogenous administration of PLA2 is measured in the in vivo PLA2 murine paw edema assay.
The assay is carried out as follows:
Non-fasted, male CD-1 mice (8 weeks old; 31-36 grams) are placed in plastic boxes in groups of six. The right hind paw volume is measured using mercury plethysmography (zero time). […] A solution of purified PLA2, from the diamond back cotton mouth snake (A. piscivorus piscivorus) is prepared in saline at a concentration of 6 μg/ml. Fifty (50) μl (0.3 μg) of this PLA2 solution is injected subcutaneously into the right hind paw with a plastic 1 ml plastic syringe (27 gauge, 1" needle). Paw volume of the injected paw is measured again at 10 minutes, 30 minutes and 60 minutes after PLA2 injection. Animals are euthanized with CO2 at the completion of the study.
The paw edema is calculated by subtracting the zero time volume from the volume recorded at each time period. Mean paw edema for each treatment group is then calculated and expressed as (μl±S.E.). Drug effects are expressed as a percent change from control (vehicle) values. Statistical significance is determined by a one-way analysis of variance with LSD comparison to control (p<0.05). ED50 's are determined using repression analysis.

[5] = test system: carrageenan paw edema; test: Rat carrageenan paw edema assay; type: in vivo, rat (male Sprague-Dawley)
Experimental: The compounds of the invention are further tested in the rat carrageenan paw edema assay to determine their ability to inhibit the acute inflammatory response.
as §1
140-180 gm Male Sprague-Dawley rats, in groups of 6 animals are injected subcutaneously in the right paw with 0.1 ml of 1% carrageenan at zero time. Mercury plethysmographic readings (ml) of the paw are made at zero time and 3 hours later. Test compounds are suspended or dissolved in 0.5% methylcellulose and given perorally 1 hour prior to carrageenan administration.
The increase in paw volume (edema in ml) produced by the carrageenan is measured. Paw edema is calculated (3 hour volume minus zero time volume), and percent inhibition of edema is determined. Unpaired Student's t-test is used to determine statistical significance.

| Structure (SMILES) | IC50 ([1]; Rattus norvegicus, Leukocyte) [µM] | inhibition at 10 µM ([2]; read-out: % Inhibition at 10 μM HP) [%] | inhibition at 10 µM ([3]; read-out: % Inhibition at 10 μM HSF) [%] | % Change in Edema 10 min ([4]; 10 mg/kg i.v.) [%] | % Change in Edema 30 min ([4]; 10 mg/kg i.v.) [%] | % Change in Edema 60 min ([4]; 10 mg/kg i.v.) [%] | % Change in Edema 10 min ([4]; 100 mg/kg p.o.) [%] | % Change in Edema 30 min ([4]; 100 mg/kg p.o.) [%] | % Change in Edema 60 min ([4]; 100 mg/kg p.o.) [%] | % Inhibition ([5]; 0.5 mg/kg peroral) [%] | % Inhibition ([5]; 2.0 mg/kg peroral) [%] | % Inhibition ([5]; 8.0 mg/kg peroral) [%] | ED50 ([5]; Rattus norvegicus, po, 3 h) [mg/kg] | IC50 ([1]; rat PMN, acetic acid) [µM] | inhibition at 10 µM ([2]; 10 μM, Table IV, read-out: % Inhibition at a concentration of 10 μM, HP) [%] | inhibition at 10 µM ([3]; 10 μM, Table IV, read-out: % Inhibition at a concentration of 10 μM, HSF) [%] | IC50 ([3]; human synovial fluid) [µM] | % Inhibition ([5]; 25 mg/kg peroral) [%] | % Inhibition ([5]; 50 mg/kg peroral) [%] | % Inhibition ([5]; 100 mg/kg peroral) [%] |
| --- | --- | --- | --- | --- | --- | --- | --- | --- | --- | --- | --- | --- | --- | --- | --- | --- | --- | --- | --- | --- |
| O=C(O)Cc1ccccc1Nc1c(Cl)cccc1Cl [diclofenac, reference compound] | 0.03 | 23 | 0 | -19 | -15 | -1 | -28 | -38 | -15 | 15 | 50 | 75 | 2.3 |  |  |  |  |  |  |  |
| O=C(O)Cc1cc(OCc2ccc3ccccc3n2)ccc1Nc1c(Cl)cccc1Cl [Example 2, 2-[(2,6-Dichlorophenyl)amino]-5-(2-quinolylmethoxy)benzene acetic acid] |  |  |  | -45 | -37 | -32 | -52 | -48 | -28 |  |  |  |  | ~10 | 12.7 | 47.6 | 6.3 | 63 | 58 | 66 |
